Reference: PMC3740522, “Synthesis of the calcilytic ligand NPS 2143” (Beilstein Journal of Organic Chemistry, 2013)

Target: T1, calcium-sensing receptor (CaSR) (Rattus norvegicus, UniProt P48442)
T1 sequence (P48442 20-1079): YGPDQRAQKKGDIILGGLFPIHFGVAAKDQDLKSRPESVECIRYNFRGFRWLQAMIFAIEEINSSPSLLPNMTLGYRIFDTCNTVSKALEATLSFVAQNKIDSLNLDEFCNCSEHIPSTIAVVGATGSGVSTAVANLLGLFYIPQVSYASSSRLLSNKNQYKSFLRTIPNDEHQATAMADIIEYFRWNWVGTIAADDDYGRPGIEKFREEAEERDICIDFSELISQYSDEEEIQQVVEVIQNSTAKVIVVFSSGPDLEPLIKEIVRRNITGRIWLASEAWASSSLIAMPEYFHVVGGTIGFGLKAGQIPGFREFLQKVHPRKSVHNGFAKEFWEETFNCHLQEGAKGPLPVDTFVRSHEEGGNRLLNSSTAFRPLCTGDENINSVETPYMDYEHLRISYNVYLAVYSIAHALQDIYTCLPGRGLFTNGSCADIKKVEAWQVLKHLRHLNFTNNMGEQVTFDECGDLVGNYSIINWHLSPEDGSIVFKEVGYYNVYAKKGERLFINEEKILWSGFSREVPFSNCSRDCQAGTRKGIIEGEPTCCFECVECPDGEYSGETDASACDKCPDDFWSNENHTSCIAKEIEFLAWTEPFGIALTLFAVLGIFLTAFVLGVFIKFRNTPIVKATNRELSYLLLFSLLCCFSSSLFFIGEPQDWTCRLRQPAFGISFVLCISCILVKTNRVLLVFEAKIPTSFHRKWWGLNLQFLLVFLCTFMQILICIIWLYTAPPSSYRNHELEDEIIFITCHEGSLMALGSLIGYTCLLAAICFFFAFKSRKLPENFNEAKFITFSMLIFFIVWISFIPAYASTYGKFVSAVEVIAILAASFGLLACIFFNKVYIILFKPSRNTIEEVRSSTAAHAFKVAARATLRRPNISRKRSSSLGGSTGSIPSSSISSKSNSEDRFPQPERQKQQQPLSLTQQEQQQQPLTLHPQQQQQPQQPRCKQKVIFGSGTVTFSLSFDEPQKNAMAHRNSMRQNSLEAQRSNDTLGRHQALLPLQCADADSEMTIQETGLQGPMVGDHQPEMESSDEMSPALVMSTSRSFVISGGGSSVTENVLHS
Test: inhibition of calcium-stimulated IP1 accumulation in HEK293 cells stably transfected with rat CaSR
Format: cell-based

In the case of `CC(C)(Cc1ccc2ccccc2c1)NC[C@@H](O)COc1cccc(Cl)c1C#N` [(R)-3, NPS 2143], the IC50 is reported as 0.64 µM.
